Source: PubChem BioAssay AID330 (DTP/NCI, 2004)
Values joined by “and” are separate entries in the source; they are usually repeats but may differ in a detail not shown here. Identical values can stand only once. Toxic doses and inconclusive results are not listed.

System: P388 leukemia ip, CD2F1 mice, survival T/C
Assay: NCI In Vivo Anticancer Drug Screen. Data for tumor model P388 Leukemia (intraperitoneal) in CD2F1 (CDF1) mice
Settings: endpoint: median survival time, higher = longer survival
Summary of the method: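 Mice carrying the transplanted tumor received test compound or vehicle. Survival was recorded in each group, and the value is the treated-group measurement divided by that of the vehicle-treated control group.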

COc1cc(NCc2ccc3nc(N)nc(N)c3c2C)cc(OC)c1OC
T/C (dose: 1.56 mg/kg/injection, schedule: Q01DX009 (ip), vehicle: Klucel (hydroxypropylcellulose) (HPC)): 112 % of control | T/C (dose: 1.56 mg/kg/injection, schedule: Q01DX009 (ip), vehicle: clinical formulation): 111 % of control | T/C (dose: 1.88 mg/kg/injection, schedule: Q01DX005 (ip), vehicle: Klucel (hydroxypropylcellulose) (HPC)): 121 % of control | T/C (dose: 1.88 mg/kg/injection, schedule: Q01DX005 (ip), vehicle: clinical formulation): 102 % of control | T/C (dose: 1.88 mg/kg/injection, schedule: Q01DX005 (iv), vehicle: clinical formulation): 102 % of control | T/C (dose: 2.1 mg/kg/injection, schedule: Q01DX009 (ip), vehicle: water): 116 % of control | T/C (dose: 2.5 mg/kg/injection, schedule: Q01DX009 (ip), vehicle: sodium bicarbonate): 124 % of control | T/C (dose: 2.52 mg/kg/injection, schedule: Q01DX005 (iv), vehicle: water): 103 % of control | T/C (dose: 3.12 mg/kg/injection, schedule: Q01DX009 (ip), vehicle: Klucel (hydroxypropylcellulose) (HPC)): 124 % of control | T/C (dose: 3.12 mg/kg/injection, schedule: Q01DX009 (ip), vehicle: clinical formulation): 109 % of control | T/C (dose: 3.75 mg/kg/injection, schedule: Q01DX005 (ip), vehicle: Klucel (hydroxypropylcellulose) (HPC)): 124 % of control | T/C (dose: 3.75 mg/kg/injection, schedule: Q01DX005 (ip), vehicle: clinical formulation): 100 % of control | T/C (dose: 3.75 mg/kg/injection, schedule: Q01DX005 (iv), vehicle: clinical formulation): 103 % of control | T/C (dose: 4.19 mg/kg/injection, schedule: Q01DX009 (ip), vehicle: water): 120 % of control | T/C (dose: 5.0 mg/kg/injection, schedule: Q01DX009 (ip), vehicle: sodium bicarbonate): 154 % of control | T/C (dose: 5.03 mg/kg/injection, schedule: Q01DX005 (iv), vehicle: water): 101 % of control | T/C (dose: 6.25 mg/kg/injection, schedule: Q01DX009 (ip), vehicle: clinical formulation): 109 % of control | T/C (dose: 7.2 mg/kg/injection, schedule: Q01DX009 (ip), vehicle: Klucel (hydroxypropylcellulose) (HPC)): 154 % of control | T/C (dose: 7.5 mg/kg/injection, schedule: Q01DX005 (ip), vehicle: clinical formulation): 100 % of control | T/C (dose: 7.5 mg/kg/injection, schedule: Q01DX005 (ip), vehicle: water): 123 % of control | T/C (dose: 7.5 mg/kg/injection, schedule: Q01DX005 (iv), vehicle: clinical formulation): 106 % of control | T/C (dose: 7.5 mg/kg/injection, schedule: Q01DX005 (iv), vehicle: water): 117 % of control | T/C (dose: 7.5 mg/kg/injection, schedule: Q03HX008 (ip), vehicle: water): 124 % of control | T/C (dose: 7.5 mg/kg/injection, schedule: Q03HX024 (ip), vehicle: water): 184 % of control | T/C (dose: 8.64 mg/kg/injection, schedule: Q01DX009 (ip), vehicle: Klucel (hydroxypropylcellulose) (HPC)): 157 % of control | T/C (dose: 10.0 mg/kg/injection, schedule: Q01DX005 (ip), vehicle: Klucel (hydroxypropylcellulose) (HPC)): 171 % of control | T/C (dose: 10.0 mg/kg/injection, schedule: Q01DX009 (ip), vehicle: sodium bicarbonate): 171 % of control and 174 % of control | T/C (dose: 10.1 mg/kg/injection, schedule: Q01DX005 (iv), vehicle: water): 106 % of control | T/C (dose: 12.0 mg/kg/injection, schedule: Q01DX009 (ip), vehicle: Klucel (hydroxypropylcellulose) (HPC)): 173 % of control | T/C (dose: 12.0 mg/kg/injection, schedule: Q03HX006 (ip), vehicle: Klucel (hydroxypropylcellulose) (HPC)): 150 % of control | T/C (dose: 12.5 mg/kg/injection, schedule: Q01DX009 (ip), vehicle: Klucel (hydroxypropylcellulose) (HPC)): 172 % of control | T/C (dose: 12.5 mg/kg/injection, schedule: Q01DX009 (ip), vehicle: clinical formulation): 111 % of control | T/C (dose: 12.5 mg/kg/injection, schedule: Q01DX009 (oral), vehicle: sodium bicarbonate): 110 % of control and 111 % of control | T/C (dose: 12.5 mg/kg/injection, schedule: Q04DX003 (ip), vehicle: Klucel (hydroxypropylcellulose) (HPC)): 180 % of control | T/C (dose: 13.0 mg/kg/injection, schedule: Q04DX002 (ip), vehicle: Klucel (hydroxypropylcellulose) (HPC)): 120 % of control | T/C (dose: 14.4 mg/kg/injection, schedule: Q01DX009 (ip), vehicle: Klucel (hydroxypropylcellulose) (HPC)): 175 % of control | T/C (dose: 15.0 mg/kg/injection, schedule: Q01DX005 (ip), vehicle: Klucel (hydroxypropylcellulose) (HPC)): 152 % of control | T/C (dose: 15.0 mg/kg/injection, schedule: Q01DX005 (ip), vehicle: clinical formulation): 103 % of control | T/C (dose: 15.0 mg/kg/injection, schedule: Q01DX005 (iv), vehicle: clinical formulation): 102 % of control | T/C (dose: 15.0 mg/kg/injection, schedule: Q01DX005 (oral), vehicle: water): 112 % of control | T/C (dose: 15.0 mg/kg/injection, schedule: Q01DX009 (ip), vehicle: water): 153 % of control | T/C (dose: 16.8 mg/kg/injection, schedule: Q01DX009 (ip), vehicle: water): 170 % of control | T/C (dose: 20.0 mg/kg/injection, schedule: Q01DX005 (ip), vehicle: Klucel (hydroxypropylcellulose) (HPC)): 202 % of control | T/C (dose: 20.0 mg/kg/injection, schedule: Q01DX009 (ip), vehicle: Klucel (hydroxypropylcellulose) (HPC)): 207 % of control | T/C (dose: 20.0 mg/kg/injection, schedule: Q01DX009 (ip), vehicle: sodium bicarbonate): 174 % of control and 222 % of control | T/C (dose: 20.0 mg/kg/injection, schedule: Q03HX006 (ip), vehicle: Klucel (hydroxypropylcellulose) (HPC)): 154 % of control | T/C (dose: 20.1 mg/kg/injection, schedule: Q01DX005 (iv), vehicle: water): 120 % of control | T/C (dose: 21.6 mg/kg/injection, schedule: Q01DX005 (ip), vehicle: Klucel (hydroxypropylcellulose) (HPC)): 152 % of control | T/C (dose: 24.0 mg/kg/injection, schedule: Q01DX009 (ip), vehicle: Klucel (hydroxypropylcellulose) (HPC)): 181 % of control | T/C (dose: 25.0 mg/kg/injection, schedule: Q01DX009 (ip), vehicle: Klucel (hydroxypropylcellulose) (HPC)): 200 % of control | T/C (dose: 25.0 mg/kg/injection, schedule: Q01DX009 (ip), vehicle: clinical formulation): 109 % of control | T/C (dose: 25.0 mg/kg/injection, schedule: Q01DX009 (oral), vehicle: sodium bicarbonate): 112 % of control | T/C (dose: 25.0 mg/kg/injection, schedule: Q04DX003 (ip), vehicle: Klucel (hydroxypropylcellulose) (HPC)): 192 % of control | T/C (dose: 30.0 mg/kg/injection, schedule: Q01DX001 (ip), vehicle: water): 108 % of control | T/C (dose: 30.0 mg/kg/injection, schedule: Q01DX001 (iv), vehicle: water): 111 % of control | T/C (dose: 30.0 mg/kg/injection, schedule: Q01DX005 (ip), vehicle: Klucel (hydroxypropylcellulose) (HPC)): 189 % of control | T/C (dose: 30.0 mg/kg/injection, schedule: Q01DX005 (ip), vehicle: clinical formulation): 100 % of control | T/C (dose: 30.0 mg/kg/injection, schedule: Q01DX005 (iv), vehicle: clinical formulation): 105 % of control | T/C (dose: 30.0 mg/kg/injection, schedule: Q01DX009 (ip), vehicle: water): 170 % of control | T/C (dose: 30.0 mg/kg/injection, schedule: Q01DX009 (oral), vehicle: water): 161 % of control | T/C (dose: 30.0 mg/kg/injection, schedule: Q04DX003 (ip), vehicle: water): 123 % of control | T/C (dose: 33.3 mg/kg/injection, schedule: Q01DX009 (ip), vehicle: Klucel (hydroxypropylcellulose) (HPC)): 218 % of control | T/C (dose: 33.3 mg/kg/injection, schedule: Q03HX006 (ip), vehicle: Klucel (hydroxypropylcellulose) (HPC)): 159 % of control | T/C (dose: 33.6 mg/kg/injection, schedule: Q01DX009 (ip), vehicle: water): 175 % of control | T/C (dose: 36.0 mg/kg/injection, schedule: Q01DX005 (ip), vehicle: Klucel (hydroxypropylcellulose) (HPC)): 195 % of control | T/C (dose: 40.0 mg/kg/injection, schedule: Q01DX005 (ip), vehicle: Klucel (hydroxypropylcellulose) (HPC)): 240 % of control | T/C (dose: 40.0 mg/kg/injection, schedule: Q01DX009 (ip), vehicle: Klucel (hydroxypropylcellulose) (HPC)): 102 % of control | T/C (dose: 40.0 mg/kg/injection, schedule: Q01DX009 (ip), vehicle: sodium bicarbonate): 242 % of control and 91 % of control | T/C (dose: 50.0 mg/kg/injection, schedule: Q01DX009 (ip), vehicle: Klucel (hydroxypropylcellulose) (HPC)): 225 % of control | T/C (dose: 50.0 mg/kg/injection, schedule: Q01DX009 (ip), vehicle: clinical formulation): 118 % of control | T/C (dose: 50.0 mg/kg/injection, schedule: Q01DX009 (oral), vehicle: sodium bicarbonate): 191 % of control | T/C (dose: 50.0 mg/kg/injection, schedule: Q04DX003 (ip), vehicle: Klucel (hydroxypropylcellulose) (HPC)): 201 % of control | T/C (dose: 60.0 mg/kg/injection, schedule: Q01DX001 (ip), vehicle: water): 104 % of control | T/C (dose: 60.0 mg/kg/injection, schedule: Q01DX001 (iv), vehicle: water): 113 % of control | T/C (dose: 60.0 mg/kg/injection, schedule: Q01DX001 (oral), vehicle: water): 120 % of control | T/C (dose: 60.0 mg/kg/injection, schedule: Q01DX005 (ip), vehicle: Klucel (hydroxypropylcellulose) (HPC)): 176 % of control and 198 % of control | T/C (dose: 60.0 mg/kg/injection, schedule: Q01DX005 (ip), vehicle: clinical formulation): 100 % of control | T/C (dose: 60.0 mg/kg/injection, schedule: Q01DX005 (oral), vehicle: water): 153 % of control | T/C (dose: 60.0 mg/kg/injection, schedule: Q01DX009 (ip), vehicle: water): 170 % of control | T/C (dose: 60.0 mg/kg/injection, schedule: Q03HX008 (ip), vehicle: water): 120 % of control | T/C (dose: 60.0 mg/kg/injection, schedule: Q03HX024 (ip), vehicle: water): 115 % of control | T/C (dose: 60.0 mg/kg/injection, schedule: Q04DX002 (ip), vehicle: Klucel (hydroxypropylcellulose) (HPC)): 151 % of control | T/C (dose: 60.0 mg/kg/injection, schedule: Q04DX003 (ip), vehicle: water): 115 % of control | T/C (dose: 80.0 mg/kg/injection, schedule: Q01DX005 (ip), vehicle: Klucel (hydroxypropylcellulose) (HPC)): 96 % of control | T/C (dose: 100.0 mg/kg/injection, schedule: Q01DX005 (ip), vehicle: Klucel (hydroxypropylcellulose) (HPC)): 116 % of control | T/C (dose: 100.0 mg/kg/injection, schedule: Q01DX009 (oral), vehicle: sodium bicarbonate): 94 % of control | T/C (dose: 100.0 mg/kg/injection, schedule: Q04DX002 (ip), vehicle: Klucel (hydroxypropylcellulose) (HPC)): 211 % of control | T/C (dose: 100.0 mg/kg/injection, schedule: Q04DX003 (ip), vehicle: Klucel (hydroxypropylcellulose) (HPC)): 230 % of control | T/C (dose: 120.0 mg/kg/injection, schedule: Q01DX001 (ip), vehicle: water): 106 % of control | T/C (dose: 120.0 mg/kg/injection, schedule: Q01DX001 (oral), vehicle: water): 115 % of control | T/C (dose: 120.0 mg/kg/injection, schedule: Q01DX005 (oral), vehicle: water): 170 % of control | T/C (dose: 120.0 mg/kg/injection, schedule: Q04DX003 (ip), vehicle: water): 118 % of control | T/C (dose: 200.0 mg/kg/injection, schedule: Q04DX003 (ip), vehicle: Klucel (hydroxypropylcellulose) (HPC)): 103 % of control | T/C (dose: 240.0 mg/kg/injection, schedule: Q01DX001 (oral), vehicle: water): 124 % of control | T/C (dose: 480.0 mg/kg/injection, schedule: Q01DX001 (oral), vehicle: water): 157 % of control
